US5021421A, “2-(1-Piperazinyl)-4-phenylcycloalkanopyridine derivatives, processes for the production thereof, and pharmaceutical composition containing the same” (Dainippon Pharmaceutical Co., Ltd., priority 1989, dated 1991)
Read-outs that look alike come from different tables or passages of the source.

Tests used:
[1] = target: T1, dopamine (D2) receptor (Rattus norvegicus, UniProt P61169); assay: In vitro binding to dopamine (D2) receptor, [3H] spiperone; set-up: species or system rats
T1 construct: Crude synaptosome fractions were prepared from some brain regions in rats for receptor sources; from tissue
Description: (§1) Dopamine (D2), serotonin (S1, S2) and adrenaline (α1) receptor binding assays were carried out according to the methods of I. Creese et al. [Eur. J. Pharmacol., 46, 377 (1977), S. J. Peroutka et al. [Mol. Pharmacol. 16, 687 (1979)], J. E. Leysen et al. [Mol. Pharmacol., 21, 301 (1982)] and D. C. U'Prichard et al. [Mol. Pharmacol., 13, 454 (1977)], respectively.
(§2) Crude synaptosome fractions were prepared from some brain regions in rats for receptor sources. Radioactive ligands used were [^3 H] spiperone (D2), [^3 H] serotonin (S1), [^3 H] ketanserin (S2) and [^3 H] WB-4101 (α1). The binding assay was performed by incubating aliquots of synaptosome fraction in buffer solution (final volume: 1 ml) containing a [^3 H] labelled ligand and a test compound. The assay was terminated by rapid filtration through Whatman GF/B glass fiber filters attached to a cell-harvester (Brandel) and radioactivity on the filters was counted in a Packard Triscarb scintillation counter. Specific binding was calculated as a difference between amounts of radioactivity in the presence and absence of an unlabelled ligand [spiperone (D2), serotonin (S1), methysergide (S2) and prazosin (α1)]. The IC50 value of the test compounds (concentration causing 50% inhibition of [^3 H] ligand specific binding) was determined by probit analysis.

[2] = target: T2, serotonin (S2) receptor (Rattus norvegicus, UniProt P14842); assay: In vitro binding to serotonin (S2) receptor, [3H] ketanserin; set-up: species or system rats; settings: [3H] ketanserin, rat brain crude synaptosome fraction
T2 construct: Crude synaptosome fractions were prepared from some brain regions in rats for receptor sources; from tissue
Description: as §1, §2

[3] = system: exploratory activity; assay: Inhibitory effect on exploratory activity (Animex activity meter); format: in vivo, mice (Std-ddy strain); settings: oral, 2 h after administration, 3 min counting; dose not given
Description: A group of 5 male mice (Std-ddy strain, 20-25 g) was used. Two hours after oral administration of the test compound, mice were placed individually in a test box (23×35×30 cm) on Animex activity meter (Farad Co.). Immediately thereafter, activity counting was started and lasted for three minutes. The mean counts of the compound-treated group were compared with those of the corresponding control (non-dosed) group, and the percent inhibition was calculated.

[4] = target: adrenaline (α1) receptor; assay: In vitro binding to adrenaline (α1) receptor, [3H] WB-4101; set-up: species or system rats; settings: [3H] WB-4101, rat brain crude synaptosome fraction
Description: as §1, §2

[5] = system: apomorphine-induced vomiting; assay: Antagonistic effect on apomorphine-induced vomiting; format: in vivo, dogs (Beagle); settings: Canis lupus familiaris, sc, read-out: Inhibitory ratio (apomorphine-induced vomiting)
Description: A group of 3-4 dogs (Beagle, 8-15 kg) was used for examining effects on the test compounds on apomorphine-induced vomiting, a known test for evaluating neuroleptic drugs.
Each dog was given a subcutaneous injection of apomorphine hydrochloride (0.3 mg/kg) two hours after the treatment of the test compounds. Then, the frequency of oral vomiting was counted for one hour. The mean counts of the compound-treated group were compared with those of the corresponding control (non-dosed) group, and the percent inhibition was calculated.

[6] = system: brain monoamine metabolites; assay: Increasing effect on concentration of brain monoamine metabolites; format: in vivo, mice (Std-ddy strain); settings: Mus musculus, 2 h, non-dosed=100
Description: A group of 5 male mice (Std-ddy strain, 25-30 g) was used for examining effect of the test compounds on concentration of brain monoamine metabolites.
Mice were killed by decapitation 2 hours after treatment with the test compounds. Brains were quickly taken out, homogenized in 1N formic acid-acetone solution, and centrifuged in a refrigerated ultracentrifuge. The supernatant was evaporated by blowing with N2 gas. Then, the residue was again resolved in 0.01 N acetic acid, and served for determining concentration of dopamine metabolites, 3,4-dihydroxyphenylacetic acid (DOPAC) and homovanillic acid (HVA), a norepinephrine metabolite, 3-methyl-4-hydroxyphenylethylene glycol (MOPEG), and a serotonin metabolite, 5-hydroxyindole-3-acetic acid (5-HIAA) concentrations by HPLC with electrochemical detection. The effect of the test compounds on concentration of each monoamine metabolite is shown as % of control (level of non-dosed animals=100) in Table 4.

[7] = target: serotonin (S1) receptor; assay: In vitro binding to serotonin (S1) receptor, [3H] serotonin; set-up: species or system rats; settings: rat brain crude synaptosome fraction
Description: as §1, §2

[8] = system: scopolamine-induced deficit of spontaneous alternation; assay: Improving effect on scopolamine-induced deficit of spontaneous alternation behavior (T-maze); format: in vivo, mice (Std-ddY strain); settings: scopolamine hydrobromide 1 mg/kg i.p.
Description: A group of 15-25 male mice (Std-ddY strain, 22-28 g) was used for evaluating effect of the test compounds on scopolamine-induced deficit of spontaneous alternation in a T-maze, which is a known animal model of memory impairment due to hypofunction of the cholinergic nervous system. The T-maze used consists of a stem and two arms which are 25 cm long, 5 cm wide and 10 cm high. The first 10 cm of the stem and last 10 cm of each arm are divided by sliding doors into start and goal boxes.
A test compound and scopolamine hydrobromide (1 mg/kg) were intraperitoneally administered to each mouse, and after 30 minutes a test of spontaneous alternation task in the T-maze was continuously repeated for 8 trials. Commonly, naive mice alternate each (right and left) goal box in turn, but scopolamine-treated animals tend to enter the same goal box repeatedly. The effect of the test compounds was expressed as % improvement (complete improvement to the alternation level of non-dosed mice=100%).

[9] = system: cycloheximide-induced amnesia of passive avoidance response; assay: Improving effect on cycloheximide-induced amnesia of passive avoidance response; format: in vivo, mice (Std-ddY strain); settings: cycloheximide 60 mg/kg s.c., retention at 24 h
Description: Anti-amnesic effect of the test compounds was examined using mice given cycloheximide, which is a known amnesia-inducing agent.
A group of 15-20 male mice (Std-ddY strain, 27-33 g) was subjected to training and retention trials for a passive avoidance task in a step-down apparatus (30×30×50 cm) with a grid floor and a wooden platform (4×4×4 cm) in a center of the floor. In the training trial, each mouse was first placed on the platform. When the mouse stepped down on the grid floor, an electric shock (1 Hz, 0.5 sec, 60 VDC) was delivered to the feet for 15 seconds. Immediately after the training trial, cycloheximide (60 mg/kg, s.c.) and a test compound (i.p.) were administered. The retention trial was carried out 24 hours thereafter, the time from placing again each mouse placed on the platform until stepping down on the grid floor (step-down latency) was measured. The step-down latency in the retention trial was markedly shortened by treatment of cycloheximide (amnesia). The effect of test compounds was assessed by % improvement (complete improvement to the latency level of non-dosed animals=100%).

[10] = [3H] spiperone, rat brain crude synaptosome fraction, read-out: IC50 D2
[11] = read-out: 5-HIAA concentration, % of control
[12] = read-out: DOPAC concentration, % of control
[13] = read-out: HVA concentration, % of control
[14] = read-out: MOPEG concentration, % of control

T1 sequence (P61169 whole entry): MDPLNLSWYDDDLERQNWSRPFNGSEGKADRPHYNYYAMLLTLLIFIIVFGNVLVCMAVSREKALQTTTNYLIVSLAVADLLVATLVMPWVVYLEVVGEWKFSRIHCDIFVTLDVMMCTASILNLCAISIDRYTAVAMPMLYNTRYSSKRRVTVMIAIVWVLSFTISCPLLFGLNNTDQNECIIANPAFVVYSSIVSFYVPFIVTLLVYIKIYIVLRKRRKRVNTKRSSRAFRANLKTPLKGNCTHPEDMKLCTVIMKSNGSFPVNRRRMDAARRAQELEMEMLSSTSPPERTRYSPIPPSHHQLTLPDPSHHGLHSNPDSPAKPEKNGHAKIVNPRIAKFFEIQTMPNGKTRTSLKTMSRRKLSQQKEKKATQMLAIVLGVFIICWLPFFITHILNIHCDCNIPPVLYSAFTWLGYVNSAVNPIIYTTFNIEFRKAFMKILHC
T2 sequence (P14842 whole entry): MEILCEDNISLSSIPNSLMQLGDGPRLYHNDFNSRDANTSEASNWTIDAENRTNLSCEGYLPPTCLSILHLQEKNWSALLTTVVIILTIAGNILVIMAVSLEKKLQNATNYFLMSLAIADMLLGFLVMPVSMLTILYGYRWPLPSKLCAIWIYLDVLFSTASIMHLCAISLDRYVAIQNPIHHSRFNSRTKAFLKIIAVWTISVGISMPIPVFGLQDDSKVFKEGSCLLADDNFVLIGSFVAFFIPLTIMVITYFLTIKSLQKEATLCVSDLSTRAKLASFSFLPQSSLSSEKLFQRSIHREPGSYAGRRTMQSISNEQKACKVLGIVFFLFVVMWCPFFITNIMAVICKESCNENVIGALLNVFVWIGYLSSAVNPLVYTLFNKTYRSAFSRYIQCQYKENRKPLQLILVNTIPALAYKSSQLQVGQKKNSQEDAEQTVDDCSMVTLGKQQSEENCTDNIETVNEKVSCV

SMILES | IC50 [1, 10] [µM] | IC50 [2] [µM] | IC50 [4] [µM] | IC50 [7] [µM] | response vs control in vivo at 10 mg/kg [6, 11] [%] | response vs control in vivo at 10 mg/kg [6, 12] [%] | response vs control in vivo at 10 mg/kg [6, 13] [%] | response vs control in vivo at 10 mg/kg [6, 14] [%] | Improvement (spontaneous alternation) ([8]; dose 10.0 mg/kg i.p.) [%] | Improvement (step-down latency) ([9]; dose 0.5 mg/kg i.p.) [%] | Improvement (step-down latency) ([9]; dose 2.0 mg/kg i.p.) [%] | also measured
CCN1CCN(c2cc(-c3ccc(F)cc3)c3c(n2)CCCCCC3)CC1 [Example 1b, 2-(4-ethyl-1-piperazinyl)-4-(4-fluorophenyl)-5,6,7,8,9,10-hexahydrocycloocta[b]pyridine] | 0.046 | 0.007 | 0.092 | – | – | – | – | – | – | – | – | Inhibitory ratio (exploratory activity) [3]: 83.7%; inhibition in vivo at 0.3 mg/kg ([5]; dose 0.3 mg/kg, apomorphine 0.3 mg/kg s.c. 2 h after compound): 88%; response vs control in vivo at 1 mg/kg [6, 11]: 102%; response vs control in vivo at 1 mg/kg [6, 12]: 235%; response vs control in vivo at 1 mg/kg [6, 13]: 212%; response vs control in vivo at 1 mg/kg [6, 14]: 118%
CCN1CCN(c2cc(-c3ccc(F)cc3)c3c(n2)CCCC3)CC1 [Example 15] | 0.058 | 0.019 | 0.035 | 1.7 | 108 | 277 | 235 | 118 | – | – | – | inhibition in vivo at 3 mg/kg ([5]; dose 3.0 mg/kg, apomorphine 0.3 mg/kg s.c. 2 h after compound): 100%
CCN1CCN(c2cc(-c3ccccc3)c3c(n2)CCCCC3)CC1 [Example 23, 2-(4-Ethyl-1-piperazinyl)-4-phenyl-6,7,8,9-tetrahydro-5H-cyclohepta[b]pyridine] | 0.096 | 0.0077 | 0.32 | 2.9 | 145 | 344 | 320 | 115 | – | – | – | –
c1ccc(-c2cc(N3CCNCC3)nc3c2CCCC3)cc1 [Example 86, 2-(1-piperazinyl)-4-phenyl-5,6,7,8-tetrahydroquinoline] | 0.73 | 0.081 | 0.53 | 1.4 | – | – | – | – | 47.6 | – | – | –
c1ccc(-c2cc(N3CCNCC3)nc3c2CCC3)cc1 [Example 87, 2-(1-Piperazinyl)-4-phenyl-6,7-dihydro-5H-1-pyrindine] | 0.27 | 0.028 | 0.094 | 0.82 | 136 | 180 | 194 | 117 | – | 48 | 77 | Improvement (spontaneous alternation) ([8]; dose 0.5 mg/kg i.p.): 48.0%; Improvement (spontaneous alternation) ([8]; dose 2.0 mg/kg i.p.): 60.0%
Fc1ccc(-c2cc(N3CCNCC3)nc3c2CCC3)cc1 [Example 88, 2-(1-Piperazinyl)-4-(4-fluorophenyl)-6,7-dihydro-5H-1-pyrindine] | – | 0.0091 | 0.065 | 0.67 | 120 | 329 | 209 | 136 | 37.0 | – | 60 | IC50 [1]: 0.07 µM; inhibition in vivo at 3 mg/kg ([5]; 2 h): 94%
Fc1ccc(-c2cc(N3CCNCC3)nc3c2CCCC3)cc1 [Example 92, 2-(1-Piperazinyl)-4-(4-fluorophenyl)-5,6,7,8-tetrahydroquinoline] | 0.3 | 0.027 | 0.38 | 1.9 | 139 | 208 | 192 | 121 | – | – | 44 | Improvement (step-down latency) ([9]; dose 10.0 mg/kg i.p.): 78%
c1ccc(-c2cc(N3CCNCC3)nc3c2CCCCC3)cc1 [Example 96] | 0.66 | 0.062 | 1.1 | 4.9 | 127 | 201 | 194 | 115 | – | 81 | 64 | –
Fc1ccc(-c2cc(N3CCNCC3)nc3c2CCCCC3)cc1 [Example 97, 2-(1-Piperazinyl)-4-(4-fluorophenyl)-6,7,8,9-tetrahydro-5H-cyclohepta[b]pyridine] | 0.26 | 0.0051 | 0.89 | 4.1 | 128 | 232 | 176 | 125 | 32.0 | 38 | 36 | –
